From US20230286970A1, “NOVEL OXADIAZOLE-BASED SELECTIVE HDAC6 INHIBITORS” (ITALFARMACO S.P.A., priority 2020, published 2023)

Experiments:
recombinant human HDAC6 = recombinant human HDAC6 (Homo sapiens (Human), UniProt Q9UBN7); experiment: Enzymatic screening, HDAC6 inhibition (fluorogenic FdL_G substrate); type: biochemical
Procedure, shortened: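 Enzyme was preincubated with compound (8 doses, triplicate, 1% DMSO) in 25 mM Tris-HCl pH 8, 130 mM NaCl, 0.05% Tween-20, 10% glycerol, with BSA. A FLUOR DE LYS-Green substrate was then added, and fluorescence was read after developer plus 2 μM TSA.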

recombinant human HDAC1 = recombinant human HDAC1 (Homo sapiens (Human), UniProt Q13547); experiment: Enzymatic screening, HDAC1 inhibition (fluorogenic FdL_G substrate); type: biochemical
Sequence of recombinant human HDAC1 (Q13547 whole entry): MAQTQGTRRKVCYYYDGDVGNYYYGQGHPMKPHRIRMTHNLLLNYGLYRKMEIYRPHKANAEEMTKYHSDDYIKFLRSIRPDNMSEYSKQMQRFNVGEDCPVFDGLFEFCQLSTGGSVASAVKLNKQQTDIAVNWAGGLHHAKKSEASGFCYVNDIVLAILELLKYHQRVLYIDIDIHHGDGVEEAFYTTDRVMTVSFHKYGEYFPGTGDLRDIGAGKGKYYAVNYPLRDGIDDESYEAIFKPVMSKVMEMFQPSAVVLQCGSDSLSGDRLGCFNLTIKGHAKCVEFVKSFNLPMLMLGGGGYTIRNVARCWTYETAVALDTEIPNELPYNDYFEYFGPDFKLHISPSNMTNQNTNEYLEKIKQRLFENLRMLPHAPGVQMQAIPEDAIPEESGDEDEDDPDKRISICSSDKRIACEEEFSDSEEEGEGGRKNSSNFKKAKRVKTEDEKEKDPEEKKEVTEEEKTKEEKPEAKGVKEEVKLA
Procedure, shortened: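 Recombinant human HDAC1 inhibition was measured fluorometrically using the FLUOR DE LYS-Green (FdL_G) substrate. Compounds at 8 doses (1% DMSO final) in Tris-HCl pH 8 buffer with NaCl, Tween-20 and glycerol were preincubated in triplicate with enzyme and 1 mg/mL BSA, then given substrate. Developer I plus 2 μM TSA was added, and fluorescence read after 25 minutes in the dark.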

Sequence of recombinant human HDAC6 (Q9UBN7 whole entry): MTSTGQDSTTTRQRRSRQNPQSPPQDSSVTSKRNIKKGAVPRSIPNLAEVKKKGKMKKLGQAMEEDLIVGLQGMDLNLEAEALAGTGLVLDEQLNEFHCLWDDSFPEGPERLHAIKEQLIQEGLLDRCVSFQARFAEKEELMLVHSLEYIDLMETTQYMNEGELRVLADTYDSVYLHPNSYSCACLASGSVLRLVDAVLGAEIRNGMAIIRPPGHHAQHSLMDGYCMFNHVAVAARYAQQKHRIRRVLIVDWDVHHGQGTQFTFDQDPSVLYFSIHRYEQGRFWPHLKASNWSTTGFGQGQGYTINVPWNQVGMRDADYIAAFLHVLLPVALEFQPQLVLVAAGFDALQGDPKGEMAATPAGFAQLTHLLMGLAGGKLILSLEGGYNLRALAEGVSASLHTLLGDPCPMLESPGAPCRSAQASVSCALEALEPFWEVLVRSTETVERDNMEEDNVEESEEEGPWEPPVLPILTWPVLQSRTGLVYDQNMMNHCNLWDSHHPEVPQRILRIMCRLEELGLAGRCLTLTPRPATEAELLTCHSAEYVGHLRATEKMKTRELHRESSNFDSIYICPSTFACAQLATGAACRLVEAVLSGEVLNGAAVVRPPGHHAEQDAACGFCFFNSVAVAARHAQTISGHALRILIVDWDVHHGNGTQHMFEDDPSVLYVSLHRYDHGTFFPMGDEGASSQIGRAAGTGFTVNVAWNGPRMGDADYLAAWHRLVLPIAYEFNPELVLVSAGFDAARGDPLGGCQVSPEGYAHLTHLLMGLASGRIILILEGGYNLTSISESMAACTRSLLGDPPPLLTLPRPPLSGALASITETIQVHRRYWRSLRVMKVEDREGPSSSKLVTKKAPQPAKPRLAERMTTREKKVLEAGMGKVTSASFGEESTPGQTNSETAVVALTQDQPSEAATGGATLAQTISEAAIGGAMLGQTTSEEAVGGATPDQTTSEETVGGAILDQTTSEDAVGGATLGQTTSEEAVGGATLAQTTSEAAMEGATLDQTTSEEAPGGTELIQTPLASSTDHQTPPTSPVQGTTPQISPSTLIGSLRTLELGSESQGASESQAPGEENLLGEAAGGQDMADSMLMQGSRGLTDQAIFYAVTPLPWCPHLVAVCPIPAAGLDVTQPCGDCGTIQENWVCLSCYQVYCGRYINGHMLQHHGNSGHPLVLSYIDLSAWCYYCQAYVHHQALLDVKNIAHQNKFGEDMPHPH

Structure (SMILES) | IC50 (recombinant human HDAC6) | IC50 (recombinant human HDAC1)
O=c1[nH]c2ccc(-c3nnn(Cc4ccc(-c5nnc(C(F)F)o5)cc4)n3)cc2[nH]1 [compound 168, 5-(2-(4-(5-(difluoromethyl)-1,3,4-oxadiazol-2-yl)benzyl)-2H-tetrazol-5-yl)-1,3-dihydro-2H-benzo[d]imidazol-2-one] | 79 nM | > 200000 nM
CN(C)c1nc2cc(-c3nnn(Cc4ccc(-c5nnc(C(F)F)o5)cc4)n3)ccc2o1 [compound 249, 5-(2-(4-(5-(difluoromethyl)-1,3,4-oxadiazol-2-yl)benzyl)-2H-tetrazol-5-yl)-N,N-dimethylbenzo[d]oxazol-2-amine] | 277 nM | > 200000 nM
CC[C@H](c1ccc(-c2nnc(C(F)F)o2)cc1)n1cc(-c2cccc(NC(=O)N3CCOCC3)c2)nn1 (stereo in doubt) [compound 184, N-(3-(1-(1-(4-(5-(difluoromethyl)-1,3,4-oxadiazol-2-yl)phenyl)propyl)-1H-1,2,3-triazol-4-yl)phenyl)morpholine-4-carboxamide] | 96 nM | > 200000 nM
O=C1NCc2ccc(-c3cnn(Cc4ccc(-c5nnc(C(F)F)o5)cc4)c3)cc21 [compound 319, 6-[1-[[4-[5-(difluoromethyl)-1,3,4-oxadiazol-2-yl]phenyl]methyl]pyrazol-4-yl]-2,3-dihydroisoindol-1-one] | 87 nM | > 1e+06 nM
O=C1NCc2ccc(-c3nnn(Cc4ncc(-c5nnc(C(F)F)o5)cn4)n3)cc21 [compound 107, 6-(2-((5-(5-(difluoromethyl)-1,3,4-oxadiazol-2-yl)pyrimidin-2-yl)methyl)-2H-tetrazol-5-yl)isoindolin-1-one] | 41 nM | > 200000 nM
Nc1ccc(-c2cn([C@H](CN3CCCC3)c3ccc(-c4nnc(C(F)F)o4)cc3)nn2)cn1 [compound 313, 5-[1-[(1S)-1-[4-[5-(difluoromethyl)-1,3,4-oxadiazol-2-yl]phenyl]-2-pyrrolidin-1-ylethyl]triazol-4-yl]pyridin-2-amine] | 308 nM | > 1e+06 nM
Cn1c(=N)n(C)c2cc(-c3cn(Cc4ccc(-c5nnc(C(F)F)o5)cc4)nn3)ccc21 [compound 162, 5-(1-(4-(5-(difluoromethyl)-1,3,4-oxadiazol-2-yl)benzyl)-1H-1,2,3-triazol-4-yl)-1,3-dimethyl-1,3-dihydro-2H-benzo[d]imidazol-2-imine] | 76 nM | 45100 nM
NC(=O)c1cccc(-c2nc(Cc3ccc(-c4nnc(C(F)F)o4)cc3)no2)c1 [compound 262, 3-(3-(4-(5-(difluoromethyl)-1,3,4-oxadiazol-2-yl)benzyl)-1,2,4-oxadiazol-5-yl)benzamide] | 488 nM | > 200000 nM
Nc1ccc(-c2cn(C(CCNC(=O)C(F)F)c3ccc(-c4nnc(C(F)F)o4)cn3)nn2)cn1 (stereo not shown) [compd. 295, N-(3-(4-(6-aminopyridin-3-yl)-1H-1,2,3-triazol-1-yl)-3-(5-(5-(difluoromethyl)-1,3,4-oxadiazol-2-yl)pyridin-2-yl)propyl)-2,2-difluoroacetamide] | 32 nM | > 200000 nM
O=C1Nc2cc(-c3nnn(Cc4ccc(-c5nnc(C(F)F)o5)cc4)n3)ccc2NC12CCCC2 [compound 195, 6′-(2-(4-(5-(difluoromethyl)-1,3,4-oxadiazol-2-yl)benzyl)-2H-tetrazol-5-yl)-1′,4′-dihydro-3′H-spiro[cyclopentane-1,2′-quinoxalin]-3′-one] | 104 nM | > 200000 nM
O=C(Nc1cc(-c2nnn(Cc3c(F)cc(-c4nnc(C(F)F)o4)cc3F)n2)ccc1O)N1CCOCC1 [compound 95, N-(5-(2-(4-(5-(difluoromethyl)-1,3,4-oxadiazol-2-yl)-2,6-difluorobenzyl)-2H-tetrazol-5-yl)-2-hydroxyphenyl)morpholine-4-carboxamide] | 37 nM | > 200000 nM
Nc1nc2ccc(-n3cc(Cc4ccc(-c5nnc(C(F)F)o5)cc4)nn3)cc2s1 [compd. 377, 6-[4-[[4-[5-(difluoromethyl)-1,3,4-oxadiazol-2-yl]phenyl]methyl]triazol-1-yl]-1,3-benzothiazol-2-amine] | 370 nM | > 1e+06 nM
Nc1ccc(-c2noc(Cc3ccc(-c4nnc(C(F)F)o4)c(F)c3)n2)cc1 [compound 408, 4-(5-(4-(5-(difluoromethyl)-1,3,4-oxadiazol-2-yl)-3-fluorobenzyl)-1,2,4-oxadiazol-3-yl)aniline] | 80 nM | > 1e+06 nM
FC(F)c1nnc(-c2ccc(Cn3nnc(-c4ccco4)n3)cc2)o1 [compound 220, 2-(difluoromethyl)-5-(4-((5-(furan-2-yl)-2H-tetrazol-2-yl)methyl)phenyl)-1,3,4-oxadiazole] | 157 nM | > 200000 nM
Nc1ccc(-c2nnnn2Cc2ncc(-c3nnc(C(F)F)o3)cn2)cn1 [compound 290, 5-(1-((5-(5-(difluoromethyl)-1,3,4-oxadiazol-2-yl)pyrimidin-2-yl)methyl)-1H-tetrazol-5-yl)pyridin-2-amine] | 68 nM | > 200000 nM
Nc1ccc(-c2cn(C(CCCN3CCCCC3)c3ccc(-c4nnc(C(F)F)o4)cc3)nn2)cn1 (stereo not shown) [compound 303, 5-[1-[1-[4-[5-(difluoromethyl)-1,3,4-oxadiazol-2-yl]phenyl]-4-piperidin-1-ylbutyl]triazol-4-yl]pyridin-2-amine] | 62 nM | > 1e+06 nM
Nc1ccc(-c2cn(C(CCN3CCCC3)c3ccc(-c4nnc(C(F)F)o4)cc3)nn2)cn1 (stereo not shown) [compound 323, 5-(1-(1-(4-(5-(difluoromethyl)-1,3,4-oxadiazol-2-yl)phenyl)-3-(pyrrolidin-1-yl)propyl)-1H-1,2,3-triazol-4-yl)pyridin-2-amine] | 49 nM | 47900 nM
CS(=O)(=O)NCC(c1ccc(-c2nnc(C(F)F)o2)cc1)n1cc(-c2ccc(N)nc2)nn1 (stereo not shown) [compound 302, N-[2-[4-(6-aminopyridin-3-yl)triazol-1-yl]-2-[4-[5-(difluoromethyl)-1,3,4-oxadiazol-2-yl]phenyl]ethyl]methanesulfonamide] | 49 nM | > 1e+06 nM
Cn1c(N)nc2cc(-c3nnn(Cc4ccc(-c5nnc(C(F)F)o5)cc4Cl)n3)ccc21 [compound 374, 5-[2-[[2-chloro-4-[5-(difluoromethyl)-1,3,4-oxadiazol-2-yl]phenyl]methyl]tetrazol-5-yl]-1-methylbenzimidazol-2-amine] | 101 nM | > 1e+06 nM

The next compounds have a lower IC50 (recombinant human HDAC6) than those just listed; values first:

IC50 (recombinant human HDAC6) | IC50 (recombinant human HDAC1) | Structure (SMILES)
31 nM | > 200000 nM | Nc1cncc(-c2cn(Cc3c(F)cc(-c4nnc(C(F)F)o4)cc3F)nn2)c1 [compound 73, 5-(1-(4-(5-(difluoromethyl)-1,3,4-oxadiazol-2-yl)-2,6-difluorobenzyl)-1H-1,2,3-triazol-4-yl)pyridin-3-amine]
30 nM | 1e+06 nM | [2H]C([2H])(c1ccc(-c2nnc(C(F)F)o2)c(F)c1F)n1cc(-c2ccc(N)nc2)nn1 [compound 385, 5-[1-[dideuterio-[4-[5-(difluoromethyl)-1,3,4-oxadiazol-2-yl]-2,3-difluorophenyl]methyl]triazol-4-yl]pyridin-2-amine]
28 nM | > 1e+06 nM | Cn1c(N)nc2cc(-c3cnn(Cc4ccc(-c5nnc(C(F)F)o5)cn4)c3)ccc21 [compound 320, 5-[1-[[5-[5-(difluoromethyl)-1,3,4-oxadiazol-2-yl]pyridin-2-yl]methyl]pyrazol-4-yl]-1-methylbenzimidazol-2-amine]
24 nM | 168000 nM | Cn1c(N)nc2cc(-c3cn(Cc4ccc(-c5nnc(C(F)F)o5)c(F)c4F)nn3)ccc21 [compound 345, 5-[1-[[4-[5-(difluoromethyl)-1,3,4-oxadiazol-2-yl]-2,3-difluorophenyl]methyl]triazol-4-yl]-1-methylbenzimidazol-2-amine]
23 nM | > 1e+06 nM | NC(=O)c1cccc(-c2cn(Cc3ccc(-c4nnc(C(F)F)o4)cn3)cn2)c1 [compd. 305, 3-[1-[[5-[5-(difluoromethyl)-1,3,4-oxadiazol-2-yl]pyridin-2-yl]methyl]imidazol-4-yl]benzamide]
21 nM | > 200000 nM | O=C1Nc2ccc(-c3cn(Cc4ccc(-c5nnc(C(F)F)o5)cc4)nn3)cc2C12CCNC2 (stereo not shown) [compound 49, 5-(1-(4-(5-(difluoromethyl)-1,3,4-oxadiazol-2-yl)benzyl)-1H-1,2,3-triazol-4-yl)spiro[indoline-3,3′-pyrrolidin]-2-one]
15 nM | > 1e+06 nM | Nc1nc2cc(-c3cn(Cc4ccc(-c5nnc(C(F)F)o5)cn4)cn3)ccc2o1 [compound 308, 5-(1-((5-(5-(difluoromethyl)-1,3,4-oxadiazol-2-yl)pyridin-2-yl)methyl)-1H-imidazol-4-yl)benzo[d]oxazol-2-amine]
12 nM | > 1e+06 nM | Fc1cc(-c2nnc(C(F)F)o2)ccc1Cc1nc(-c2ccc(NC3=NCCN3)cc2)no1 [compound 420, N-(4-(5-(4-(5-(difluoromethyl)-1,3,4-oxadiazol-2-yl)-2-fluorobenzyl)-1,2,4-oxadiazol-3-yl)phenyl)-4,5-dihydro-1H-imidazol-2-amine]
9 nM | > 1e+06 nM | Fc1cc(-c2nnc(C(F)F)o2)c(F)cc1Cn1cnc(-c2ccc(NC3=NCCN3)cc2)c1 [compound 361, N-[4-[1-[[4-[5-(difluoromethyl)-1,3,4-oxadiazol-2-yl]-2,5-difluorophenyl]methyl]imidazol-4-yl]phenyl]-4,5-dihydro-1H-imidazol-2-amine]
9 nM | > 1e+06 nM | [2H]C([2H])(c1ccc(-c2nnc(C(F)F)o2)cn1)n1cc(-c2ccc3nc(N)sc3c2)nn1 [compound 376, 6-[1-[dideuterio-[5-[5-(difluoromethyl)-1,3,4-oxadiazol-2-yl]pyridin-2-yl]methyl]triazol-4-yl]-1,3-benzothiazol-2-amine]
